These results are taken from paper PMC5651845, “A New Generation of Arachidonic Acid Analogues as Potential Neurological Agent Targeting Cytosolic Phospholipase A2” (Scientific Reports, 2017).

The target of one data set is T1, recombinant cPLA2 (Homo sapiens, UniProt P47712).
T1 construct: purchased US Biological P4074-03R
T1 sequence (P47712 1-749): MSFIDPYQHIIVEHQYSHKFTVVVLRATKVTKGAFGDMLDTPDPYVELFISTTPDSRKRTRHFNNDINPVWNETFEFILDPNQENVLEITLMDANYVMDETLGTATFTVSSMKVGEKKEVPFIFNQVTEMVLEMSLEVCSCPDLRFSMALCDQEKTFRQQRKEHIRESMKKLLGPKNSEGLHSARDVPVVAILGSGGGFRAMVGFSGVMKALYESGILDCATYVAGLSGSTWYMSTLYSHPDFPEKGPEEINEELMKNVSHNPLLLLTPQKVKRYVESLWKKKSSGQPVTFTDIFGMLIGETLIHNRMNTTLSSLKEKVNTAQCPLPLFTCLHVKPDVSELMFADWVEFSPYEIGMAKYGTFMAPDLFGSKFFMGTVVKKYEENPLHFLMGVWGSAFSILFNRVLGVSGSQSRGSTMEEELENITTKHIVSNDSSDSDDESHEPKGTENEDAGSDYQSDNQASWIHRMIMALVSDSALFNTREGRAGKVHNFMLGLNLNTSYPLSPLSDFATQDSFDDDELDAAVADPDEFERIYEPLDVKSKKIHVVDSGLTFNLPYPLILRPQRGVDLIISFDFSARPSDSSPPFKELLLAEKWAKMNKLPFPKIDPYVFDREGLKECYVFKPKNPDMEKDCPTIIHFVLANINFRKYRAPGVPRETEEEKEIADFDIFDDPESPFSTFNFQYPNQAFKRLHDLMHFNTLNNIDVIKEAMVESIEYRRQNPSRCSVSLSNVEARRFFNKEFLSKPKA
As to the kind of experiment: EnzChek phospholipase A2 fluorogenic assay (% activity) at 10 μM. In kind it is biochemical. To be noted: 10 μM compound; for remaining activity at 10 µM: 1 h, room temperature. As to the method: The compounds were evaluated with a fluorogenic PLA2 assay kit (EnzChek® Phospholipase A2 Assay Kit, Catalog No: E10217) at a standard 10 μM concentration. Potential inhibitors were determined by their ability to lower cPLA2 activity to a greater extent than 1a.
The assay was conducted according to the manufacturer’s instruction (E10217, Molecular Probes) with slight modification. Briefly, substrate solution was separately prepared by mixing 5 μL of DOPG, 5 μL of DOPC and 5 μL of substrate respectively in 1.5 mL of 1X phospholipase A2 reaction buffer. The mixture was vortexed vigorously for 3 min before allowing to stand at room temperature for 1 h. 48 μL of 1X phospholipase A2 reaction buffer were added into each well of a 96-wells plate. This was followed by addition of 1 μL of recombinant cPLA2 (P4074-03R, US Biological) and 1 μL of 1 mM of the respective compound dissolved in DMSO. The final concentration of the test compound achieved is 10 μM. The reaction was initiated by adding 50 μL of the substrate solution and incubating at room temperature for 1 h. Fluorescence was measured using a Varioskan plate reader (Thermo Scientific, MA, USA) by exciting at 485 nm, while fluorescence emission was detected at 515 nm. Positive control was performed when 1 μL of test compound was replaced by vehicle DMSO. % activity was expressed as the mean value of duplicate wells from three experiments. % activity was calculated by the following formula1 %activity=fluorescenceoftestedwell−background/fluorescenceofpostivecontrol−background

Data set [1] can be described thus: PAMPA with porcine brain lipids (BBB permeation). Conditions: for order of Pe values of reference compounds: similar conditions. As to the method: Thus to explore whether 2i is able to penetrate into the brain, we used PAMPA with porcine brain lipids as the lipid barrier. […] A minimum Pe of […] × 10^−6 cm/s has been cited as the threshold for permeability across the blood brain barrier.
The Parallel Artificial Membrane Permeability Assay (PAMPA) was used to determine the effective permeability (Pe) of 2i. The method reported by Di et al.[53] was followed with modifications. Determinations were carried out on MultiScreen-IP PAMPA assay (donor) plates (MAIPNTR10) and MultiScreen Receiver Plates (MATRNPS50) from Millipore Corporation (USA) with porcine polar brain lipids (Avanti Polar Lipids Inc, Alabaster, AL) as the lipid barrier.
An aliquot (5 µL) of 2% porcine brain lipids in dodecane (ReagentPlus®, Sigma Aldrich, USA) was dispensed into the donor well. A stock solution (5 mM) of 2i prepared in DMSO was diluted with 1x phosphate buffer (PBS, pH 7.4) to give a 50 µM solution. An aliquot (300 µL) of the solution was dispensed into the donor well and an equal volume of buffer (1xPBS with 1% DMSO) was added to the corresponding acceptor well. The donor and acceptor plates were assembled, the unit was placed in a humidified box and gently agitated on a mini shaker at room temperature (25 °C) for 16 h. After this time, aliquots (200 µL) were withdrawn from the donor and acceptor wells, diluted separately to 1 mL with PBS, and quantified at λmax of 290 nm on a Shimadzu UV-1800 Spectrophotometer.
300 µL aliquots of stock solutions (500 µM, 1xPBS, 0.1% DMSO) were dispensed to donor wells as described earlier. Quantification was by UV at λmax of 272 nm (caffeine), 284 nm (carbamazepine), 330 nm (quinidine), 280 nm (dopamine) and 288 nm (propanolol). […] Pe was obtained from (3):3 Pe=−2.303×{VAVD/[(VA+VD)×A×t]}×log{1−[(VA+VD)/(VD.S)]×CA(t)/CD(0)} where VA and VD are the volumes of acceptor (cm^3) and donor (cm^3) wells respectively, A is the area of the surface area of the membrane (0.24 cm^2), t is the permeation time (s). The Pe of each compound was obtained from at least 3 separate experiments using 2 different stock solutions. For each independent determination, triplicates (3 wells) were run for each compound.
(In general: PAMPA measures passive passage across an artificial lipid membrane.)

Regarding `CCCCC/C=C\C/C=C\C/C=C\C/C=C\CCCC(=O)Nc1ccc(C(N)=O)cc1` [2l], at recombinant cPLA2, the inhibition (in general, the drop in the measured response relative to a control, in per cent) at 10 µM was 32.6% and the remaining activity (as a rule, the share of the control activity or signal that is left under treatment) at 10 µM is 67.4 ± 5.7%.

For the molecule `CCCCC/C=C\C/C=C\C/C=C\C/C=C\CCCC(=O)Nc1ccccc1C(=O)O` [2o], on recombinant cPLA2, the inhibition at 10 µM was 34.5% and the remaining activity at 10 µM stood at 65.5 ± 4%. For the molecule `CCCCC/C=C\C/C=C\C/C=C\C/C=C\CCCC(N)=O` [1m, (5Z,8Z,11Z,14Z)-icosa-5,8,11,14-tetraenamide], at recombinant cPLA2, the inhibition at 10 µM came to 39.3% and the remaining activity at 10 µM amounted to 60.7 ± 1.9%. Take `CC(C)NCC(O)COc1cccc2ccccc12` (centres unmarked) [propranolol]: the “order of Pe values of reference compounds” value (shortened to “order”) in data set [1] is reported as “propranolol > carbamazepine > quinidine > caffeine > dopamine”. For `O=C1NC(=O)/C(=C/c2ccc(C(=O)NC[C@@H]3C[C@@H](SC(c4ccccc4)(c4ccccc4)c4ccccc4)CN3C(=O)c3ccccc3C(=O)c3ccc(F)cc3F)cc2)S1` [pyrrophenone], the “effective permeability (Pe)” value in data set [1] (porcine brain lipids, 16 h, 25 °C) is recorded as 2.00 ± 0.05 × 10^−6 cm/s. In the case of `CCCCC/C=C\C/C=C\C/C=C\C/C=C\CCCC(=O)Nc1cccc(S(N)(=O)=O)c1` [2p, (5Z,8Z,11Z,14Z)-N-(3-sulfamoylphenyl)icosa-5,8,11,14-tetraenamide], on recombinant cPLA2, the inhibition at 10 µM was determined as 46.1% and the remaining activity at 10 µM turned out to be 53.9 ± 2.7%. Regarding `CCC/C=C\C/C=C\C/C=C\C/C=C\CCCCC(=O)NCCCCC(=O)O` [2h], on recombinant cPLA2, the inhibition at 10 µM came out at 56.4% and the remaining activity at 10 µM amounted to 43.6 ± 0.2%.

In the case of `CCC/C=C\C/C=C\C/C=C\C/C=C\CCCCC(=O)Nc1cccc(C(=O)O)c1` [2j], at recombinant cPLA2, the inhibition at 10 µM was 83.5% and the remaining activity at 10 µM was found to be 16.5 ± 1.2%. Regarding `CCCCC/C=C\C/C=C\C/C=C\C/C=C\CCCC(=O)NCCCCC(=O)O` [2b], on recombinant cPLA2, the inhibition at 10 µM amounted to 73.3% and the remaining activity at 10 µM stood at 26.7 ± 0.1%. Take `CCCCCC/C=C\C/C=C\C/C=C\C/C=C\CCC(=O)C(F)(F)F` [1e]: at recombinant cPLA2, the inhibition at 10 µM came to 59.5% and the remaining activity at 10 µM is 40.5 ± 3.6%. Regarding `CCCCC/C=C\C/C=C\C/C=C\C/C=C\CCCC(=O)NCCCC(=O)O` [2a], on recombinant cPLA2, the inhibition at 10 µM came out at 60.3% and the remaining activity at 10 µM worked out at 39.7 ± 2.6%. Regarding `C=C[C@H]1C[N@@]2CC[C@H]1C[C@@H]2[C@@H](O)c1ccnc2ccc(OC)cc12` [quinidine], in data set [1], the “order” value is reported as “propranolol > carbamazepine > quinidine > caffeine > dopamine”. Consider `CCCCC/C=C\C/C=C\C/C=C\C/C=C\CCCCCC(=O)NCCCCC(=O)O` [2k], for which, on recombinant cPLA2, the inhibition at 10 µM is 62.3% and the remaining activity at 10 µM was 37.7 ± 1.5%.

`CCC/C=C\C/C=C\C/C=C\C/C=C\CCCC(=O)C(F)(F)F` [1b]: at recombinant cPLA2, the inhibition at 10 µM was 63% and the remaining activity at 10 µM was 37 ± 3.9%.

With `Cn1c(=O)c2c(ncn2C)n(C)c1=O` [caffeine], the “order” value in data set [1] is reported as “propranolol > carbamazepine > quinidine > caffeine > dopamine”. On to `NC(=O)N1c2ccccc2C=Cc2ccccc21` [carbamazepine], for which, in data set [1], the “order” value is listed as “propranolol > carbamazepine > quinidine > caffeine > dopamine”. Consider `O=C(CCC/C=C\C/C=C\C/C=C\C/C=C\c1ccccc1)C(F)(F)F` [1d], for which, on recombinant cPLA2, the inhibition at 10 µM amounted to 68.2% and the remaining activity at 10 µM worked out at 31.8 ± 2%.

For the molecule `CCCCC/C=C\C/C=C\C/C=C\C/C=C\CCCC(=O)Nc1cccc(C(=O)O)c1` [2d], on recombinant cPLA2, the inhibition at 10 µM was 86.8% and the remaining activity at 10 µM was 13.2 ± 1.2%. Taken in the same sequence, the figures for `CCCCC/C=C\C/C=C\C/C=C\C/C=C\CCCC(=O)C(F)F` [1o] were 59.8% and 40.2 ± 0.5%.

Take `CCCCCCCC/C=C\C/C=C\C/C=C\C/C=C\CCCC(=O)C(F)(F)F` [1c]: on recombinant cPLA2, the inhibition at 10 µM is 55% and the remaining activity at 10 µM is 45 ± 3.5%. `CCCCC/C=C\C/C=C\C/C=C\C/C=C\CCCC(=O)NCc1ccc(C(=O)O)cc1` [2e]: at recombinant cPLA2, the inhibition at 10 µM came out at 74.2% and the remaining activity at 10 µM was determined as 25.8 ± 0.1%. For `CCCCC/C=C\C/C=C\C/C=C\C/C=C\CCCC(=O)Nc1ccc(C(=O)O)cc1` [2n], in that order: 66.7% and 33.3 ± 0.9%.

With `CCCCC/C=C\C/C=C\C/C=C\C/C=C\CCCC(=O)Nc1cccc(C(N)=O)c1` [2m], on recombinant cPLA2, the inhibition at 10 µM was determined as 42.5% and the remaining activity at 10 µM turned out to be 57.5 ± 1.4%. For `CCCCC/C=C\C/C=C\C/C=C\C/C=C\CCCC(=O)NCCCCCC(=O)OC` [20c], in that order: 15.2% and 84.8 ± 1%.

For the molecule `CCCCC/C=C\C/C=C\C/C=C\C/C=C\CCCC(=O)NCc1cccc(C(=O)O)c1` [2f], on recombinant cPLA2, the inhibition at 10 µM came to 64.4% and the remaining activity at 10 µM is 35.6 ± 2.1%.

As to `CCCCC/C=C\C/C=C\C/C=C\C/C=C\CCCC(=O)NCCCCCC(=O)O` [2c], on recombinant cPLA2, the inhibition at 10 µM is 59.1% and the remaining activity at 10 µM worked out at 40.9 ± 1.1%. In the case of `NCCc1ccc(O)c(O)c1` [dopamine], in data set [1], the “order” value is “propranolol > carbamazepine > quinidine > caffeine > dopamine”.

Take `CCCCC/C=C\C/C=C\C/C=C\C/C=C\CCCC(=O)C(F)(F)Cl` [1n]: at recombinant cPLA2, the inhibition at 10 µM is 50.8% and the remaining activity at 10 µM was found to be 49.2 ± 4.5%.
